# Source: patent publication US10335608B2, “Photodynamic compounds and methods for activating them using ionizing radiation and/or other electromagnetic radiation for therapy and/or diagnostics” (THERALASE TECHNOLOGIES, INC., priority 2016, dated 2019)
# Columns and labels:
# [1] = system: U87 cells; assay: Presto Blue cell kill after light and/or X-ray PDT, U87 cells; format: cell-based, human; settings: 20 μM
# Description: The cells were incubated in complete DMEM media containing antibiotics and 10% FBS (resulting in 2.5 μM bovine Tf in the medium) and all the solutions were prepared in this media. The cells were loaded with TLD1433 or TLDOsH2IP (20-80 μM) for 4 hours at 37° C. Subsequently, a wash with complete medium was performed followed by irradiation with red (625 nm, 90 J cm^−2) or near infrared (808 nm, 600 J cm^−2) light, X-ray (5 Gy, 225 keV), X-ray followed by light or light followed by X-ray. Matched dark controls were used in parallel: incubation at ambient conditions (ambient air, room temperature) for a length of time corresponding to the irradiation session. After irradiation, the cells were returned to the incubator. After 21 hours, the viability of cells was determined by Presto Blue assay, and cell kill was calculated as percent of matched control. Pure PDT effect was calculated in the following way: Pure PDT effect (percent cell kill)=Total PDT percent cell kill−Light alone percent cell kill−Dark percent cell kill.
# [2] = In vivo CT imaging of the photosensitizer after tail vein injection; settings: rat, 1 mg/kg via tail vein, 5 min to 4 hours post administration
# Description: For in vivo imaging of the photosensitizer, a rat was injected with 1 mg/kg of OsH2dppn via tail vein and imaged with a small animal CT scanner as a function of time post-systemic administration (5, 10, 30 min, 1, 2, 4 hours).
# [3] = near infrared light (808 nm, 600 J cm^−2)
Structure (SMILES),Dark cell kill (%) ([1]; no irradiation),PDT cell kill (%) ([1]; Near Infrared & X-ray),"Pure PDT effect (% cell kill, in brackets) ([1]; Near Infrared & X-ray) [% cell kill]",Synergy in the pure PDT effect (% cell kill) ([1]; Near Infrared & X-ray),PDT cell kill (%) ([1]; X-ray & Near Infrared),"Pure PDT effect (% cell kill, in brackets) ([1]; X-ray & Near Infrared) [% cell kill]",Synergy in the pure PDT effect (% cell kill) ([1]; X-ray & Near Infrared),"PDT cell kill (%) ([1]; X-ray (5 Gy, 225 KeV))","Pure PDT effect (% cell kill, in brackets) ([1]; X-ray (5 Gy, 225 KeV)) [% cell kill]","PDT cell kill (%) [1, 3] [%]","Pure PDT effect (% cell kill, in brackets) [1, 3] [% cell kill]",Distribution on CT images over time [2]
"[Os+2].c1ccc2nc(-c3ccc4ccccc4n3)ccc2c1.c1ccc2nc(-c3ccc4ccccc4n3)ccc2c1.c1cnc2c(c1)c1nc[nH]c1c1cccnc12 [OsH2IP, [Os(biq)2(LL)] imidazo[4,5-f][1,10]phenanthroline]",5.1,31.5,17.0,−9.3,50.0,39.6,13.4,13.8,6.8,24.6,19.5,–
"[Os+2].c1ccc2cc3nc4c5cccnc5c5ncccc5c4nc3cc2c1.c1ccc2nc(-c3ccc4ccccc4n3)ccc2c1.c1ccc2nc(-c3ccc4ccccc4n3)ccc2c1 [OsH2dppn, [Os(biq)2(LL)] benzo[i]dipyrido-[3,2-a:2′,3′-c]phenazine]",–,–,–,–,–,–,–,–,–,–,–,presumably accumulating in the bladder over time
